Consider two molecules from ChEMBL document CHEMBL4665787, “Bifunctional and Unusual Amino Acid β- or γ-Ester Prodrugs of Nucleoside Analogues for Improved Affinity to ATB and Enhanced Metabolic Stability: An Application to Floxuridine” (J Med Chem, 2020).

One series deals with MIA PaCa-2. Description: Potency index, ratio of FUdR GI50 to test compound GI50 for growth inhibition of human MIA-PaCa-2 cells. In kind it is functional.
Series [1] is described as follows: Drug uptake in Xenopus laevis oocytes at 0.5 mM incubated for 10 mins by HPLC analysis. Type of series: ADME, cell-based. The following applies: oocyte, 500 µM.
Series [2] is described as follows: Half life of compound in PBS buffer at pH 7.4 at 200 uM by HPLC analysis. In kind it is physicochemical.
Series [3] can be described thus: Half life in rat plasma at 200 uM measured up to 120 mins by HPLC-MS/MS analysis. In kind it is ADME, cell-free.
For series [4], the target named is T1, Sodium- and chloride-dependent neutral and basic amino acid transporter B(0+) (Homo sapiens) (UniProt Q9UN76).
T1 sequence (whole entry): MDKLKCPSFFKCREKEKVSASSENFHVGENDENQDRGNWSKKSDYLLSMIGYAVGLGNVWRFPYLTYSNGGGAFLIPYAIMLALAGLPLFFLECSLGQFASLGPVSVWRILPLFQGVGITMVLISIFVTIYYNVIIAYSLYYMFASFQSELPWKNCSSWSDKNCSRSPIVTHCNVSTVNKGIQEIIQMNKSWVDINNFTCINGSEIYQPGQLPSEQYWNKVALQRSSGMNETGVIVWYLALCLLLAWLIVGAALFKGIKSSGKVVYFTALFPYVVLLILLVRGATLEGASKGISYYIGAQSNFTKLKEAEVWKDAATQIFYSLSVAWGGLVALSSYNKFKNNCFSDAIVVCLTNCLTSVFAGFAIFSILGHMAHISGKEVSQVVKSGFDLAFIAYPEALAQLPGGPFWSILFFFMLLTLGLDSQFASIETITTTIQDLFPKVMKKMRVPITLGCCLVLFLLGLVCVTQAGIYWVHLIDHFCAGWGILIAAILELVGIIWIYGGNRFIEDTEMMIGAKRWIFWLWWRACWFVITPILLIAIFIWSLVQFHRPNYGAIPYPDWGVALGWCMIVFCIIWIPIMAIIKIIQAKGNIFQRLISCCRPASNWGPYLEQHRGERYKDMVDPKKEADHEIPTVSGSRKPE
Description: Substrate activity at SLC6A14 (unknown origin) expressed in Xenopus laevis oocytes assessed as inhibition of drug uptake at 0.5 mM incubated for 10 mins in presence of glycine by HPLC analysis relative to control. In kind it is cell-based. To be noted: Oocyte.

Series [5] has as its target T1, Sodium- and chloride-dependent neutral and basic amino acid transporter B(0+) (Homo sapiens). In words: Substrate activity at SLC6A14 (unknown origin) expressed in Xenopus laevis oocytes assessed as increase in ABT0+ mediated drug uptake at 1 mM in presence of Na+ ion by HPLC analysis. The following applies: Oocyte. Type of series: cell-based.
The nature of series [6]: Half life of compound in human ZR-75-1 cell homogenate. Type of series: ADME, tissue-based.
The test system of the next series is thymidine phosphorylase. Description: Half life of compound in thymidine phosphorylase buffer at 300 uM by HPLC analysis. Type of series: physicochemical.
Series [7] addresses T2, Solute carrier family 15 member 1 (Homo sapiens, UniProt P46059).
T2 sequence (P46059 whole entry): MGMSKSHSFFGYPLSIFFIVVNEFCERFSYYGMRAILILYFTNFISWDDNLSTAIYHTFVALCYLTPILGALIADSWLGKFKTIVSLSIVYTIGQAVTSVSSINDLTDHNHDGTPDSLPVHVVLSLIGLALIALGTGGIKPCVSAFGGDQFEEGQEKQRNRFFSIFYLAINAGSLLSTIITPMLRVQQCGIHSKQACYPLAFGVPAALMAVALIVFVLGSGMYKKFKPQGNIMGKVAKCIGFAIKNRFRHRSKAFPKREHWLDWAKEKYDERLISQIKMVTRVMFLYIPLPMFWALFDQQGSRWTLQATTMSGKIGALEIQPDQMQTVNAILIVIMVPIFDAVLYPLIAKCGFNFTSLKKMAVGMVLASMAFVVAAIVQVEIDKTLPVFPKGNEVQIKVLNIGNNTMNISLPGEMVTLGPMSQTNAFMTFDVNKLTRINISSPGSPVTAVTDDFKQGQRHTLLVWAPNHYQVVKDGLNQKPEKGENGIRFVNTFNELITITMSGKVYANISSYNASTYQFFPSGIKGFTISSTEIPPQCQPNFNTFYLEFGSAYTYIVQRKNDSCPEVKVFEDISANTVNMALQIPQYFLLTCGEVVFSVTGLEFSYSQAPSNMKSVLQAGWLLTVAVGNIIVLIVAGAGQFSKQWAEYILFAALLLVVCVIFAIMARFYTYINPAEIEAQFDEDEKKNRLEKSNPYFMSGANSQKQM
Description: Substrate activity at PEPT1 (unknown origin) expressed in MDCK cells assessed as PEPT1 mediated drug uptake at 0.5 mM incubated for 10 mins by HPLC analysis. To be noted: 500 µM. In kind it is ADME, cell-based.

The nature of series [8]: Selectivity ratio of substrate activity at PEPT1 (unknown origin) expressed in MDCK cells assessed as PEPT1 mediated drug uptake to drug uptake in MDCK cells.
In series [9] the target is T3, Sodium- and chloride-dependent neutral and basic amino acid transporter B(0+) (Homo sapiens, UniProt Q9UN76).
T3 sequence (Q9UN76 whole entry): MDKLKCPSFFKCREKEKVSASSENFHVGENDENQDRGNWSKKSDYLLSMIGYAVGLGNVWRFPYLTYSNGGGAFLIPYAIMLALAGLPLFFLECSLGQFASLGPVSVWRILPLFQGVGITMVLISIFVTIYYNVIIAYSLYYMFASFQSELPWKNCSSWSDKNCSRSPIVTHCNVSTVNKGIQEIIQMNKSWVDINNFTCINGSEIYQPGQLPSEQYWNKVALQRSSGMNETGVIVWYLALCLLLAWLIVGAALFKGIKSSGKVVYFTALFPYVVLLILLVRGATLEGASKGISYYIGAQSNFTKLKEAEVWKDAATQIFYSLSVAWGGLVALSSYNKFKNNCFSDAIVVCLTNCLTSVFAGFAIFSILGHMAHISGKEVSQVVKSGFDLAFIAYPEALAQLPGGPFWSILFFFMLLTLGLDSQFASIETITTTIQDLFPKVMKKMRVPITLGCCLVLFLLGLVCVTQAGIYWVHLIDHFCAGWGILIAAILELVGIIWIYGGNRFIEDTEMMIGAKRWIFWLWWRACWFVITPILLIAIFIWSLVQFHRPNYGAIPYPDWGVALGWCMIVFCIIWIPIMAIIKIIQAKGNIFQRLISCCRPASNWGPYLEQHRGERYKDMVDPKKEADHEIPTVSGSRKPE
Description: Substrate activity at SLC6A14 (unknown origin) expressed in Xenopus laevis oocytes assessed as inhibition of glycine uptake incubated for 10 mins by HPLC/MS/MS analysis. In kind it is cell-based, Oocyte.

In series [10] the target is T2, Solute carrier family 15 member 1. Description: Substrate activity at PEPT1 (unknown origin) expressed in MDCK cells assessed as inhibition of gly-sar uptake incubated for 10 mins by HPLC/MS/MS analysis. Type of series: cell-based.
Series [11] is described as follows: Selectivity ratio of substrate activity at SLC6A14 (unknown origin) expressed in Xenopus laevis oocytes assessed as ABT0+ mediated drug uptake to drug uptake in Xenopus laevis oocytes. The arrangement: species or system Oocyte.
The nature of series [12]: Drug uptake in MDCK cells incubated for 10 mins by HPLC analysis. Type of series: ADME, cell-based, Canis lupus familiaris. To be noted: dog, 500 µM, dose 0.5 mM.
The target of series [13] is T3, Sodium- and chloride-dependent neutral and basic amino acid transporter B(0+). Description: Substrate activity at SLC6A14 (unknown origin) expressed in Xenopus laevis oocytes assessed as ABT0+ mediated drug uptake at 0.5 mM incubated for 10 mins by HPLC analysis. Type of series: ADME, cell-based. The following applies: oocyte, 500 µM.
The nature of series [14]: Half life of compound in human MIA PaCa-2 cell homogenate. In kind it is ADME, tissue-based.
Another series concerns MDA-MB-231. Description: Potency index, ratio of FUdR GI50 to test compound GI50 for growth inhibition of human MDA-MB-231 cells. In kind it is functional.
The target in series [15] is T1, Sodium- and chloride-dependent neutral and basic amino acid transporter B(0+) (Homo sapiens). In words: Substrate activity at SLC6A14 (unknown origin) expressed in Xenopus laevis oocytes assessed as increase in ABT0+ mediated drug uptake at 1 mM in presence of Cl- ion by HPLC analysis. Type of series: cell-based. The following applies: Oocyte.
Series [16] in a line: Half life of compound in human MDA-MB-231 cell homogenate. In kind it is ADME, tissue-based.
In the next series the test system is ZR-75-1. Description: Potency index, ratio of FUdR GI50 to test compound GI50 for growth inhibition of human ZR-75-1 cells. Type of series: functional.
Compound in series [17]: N[C@@H](CC(=O)OC[C@H]1O[C@@H](n2cc(F)c(=O)[nH]c2=O)C[C@@H]1O)C(=O)O
In words: (§1) Substrate activity at SLC6A14 (unknown origin) expressed in Xenopus laevis oocytes assessed as Vmax by measuring ABT0+ mediated drug uptake incubated for 10 mins in presence of glycine by HPLC based Michaelis-Menten analysis. To be noted: Homo sapiens, Oocyte. Type of series: cell-based.

Compound in series [18]: CC(C)[C@H](N)C(=O)OC[C@H]1O[C@@H](n2cc(F)c(=O)[nH]c2=O)C[C@@H]1O
Described as §1. In kind it is cell-based. The following applies: Homo sapiens, Oocyte.

Compound in series [19]: N[C@@H](CCC(=O)OC[C@H]1O[C@@H](n2cc(F)c(=O)[nH]c2=O)C[C@@H]1O)C(=O)O
Described as §1. The following applies: Homo sapiens, Oocyte. Type of series: cell-based.

Compound in series [20]: N[C@@H](CC(=O)OC[C@H]1O[C@@H](n2cc(F)c(=O)[nH]c2=O)C[C@@H]1O)C(=O)O
Description: (§2) Substrate activity at SLC6A14 (unknown origin) expressed in Xenopus laevis oocytes assessed as Km by measuring ABT0+ mediated drug uptake incubated for 10 mins in presence of glycine by HPLC based Michaelis-Menten analysis. The following applies: Homo sapiens, Oocyte. Type of series: cell-based.

Compound in series [21]: CC(C)[C@H](N)C(=O)OC[C@H]1O[C@@H](n2cc(F)c(=O)[nH]c2=O)C[C@@H]1O
Described as §2. Type of series: cell-based. The following applies: Homo sapiens, Oocyte.

Compound in series [22]: N[C@@H](CCC(=O)OC[C@H]1O[C@@H](n2cc(F)c(=O)[nH]c2=O)C[C@@H]1O)C(=O)O
The series is described as §2. Type of series: cell-based. The following applies: Homo sapiens, Oocyte.

Active and inactive are the calls of the source. No cut-off for these calls is given here.

As usually defined, the half-life is how long it takes for the measured level to halve. As a reminder, the inhibition is the drop in the measured response relative to a control, in per cent. Broadly, the IC50 is the concentration that inhibits the measured activity by half. Take `N[C@@H](CCC(=O)OC[C@H]1O[C@@H](n2cc(F)c(=O)[nH]c2=O)C[C@@H]1O)C(=O)O`: the RatioGI50 with MIA PaCa-2, in the series on MDA-MB-231 and in the series on ZR-75-1 was 7 throughout. In addition, the Drug uptake is 0.35 nmol/mg/min in series [1], below 0.04 nmol/mg/min in [7], below 0.04 nmol/mg/min in [12] and 2.12 nmol/mg/min in [13]. Besides, the half-life at 200 µM in [2] amounted to 4.3 h; in series [3] it was 1.91 h. Besides, in series [4], the inhibition stood at 50%. The result in series [5] and in series [15] was Active. Besides, the half-life worked out at 0.205 h in series [6], 0.335 h in series [14] and 0.288 h in series [16]. Also, in the series with thymidine phosphorylase, the half-life at 300 µM worked out at 4.27 h. The Ratio in series [8] is listed as 1; in series [11], 6.23. The IC50 in series [9] was 1.13 mM; in series [10], 11.5 mM.

B1: Sodium- and chloride-dependent neutral and basic amino acid transporter B(0+) (Homo sapiens), Q9UN76 (protein)
chain: MDKLKCPSFFKCREKEKVSASSENFHVGENDENQDRGNWSKKSDYLLSMIGYAVGLGNVWRFPYLTYSNGGGAFLIPYAIMLALAGLPLFFLECSLGQFASLGPVSVWRILPLFQGVGITMVLISIFVTIYYNVIIAYSLYYMFASFQSELPWKNCSSWSDKNCSRSPIVTHCNVSTVNKGIQEIIQMNKSWVDINNFTCINGSEIYQPGQLPSEQYWNKVALQRSSGMNETGVIVWYLALCLLLAWLIVGAALFKGIKSSGKVVYFTALFPYVVLLILLVRGATLEGASKGISYYIGAQSNFTKLKEAEVWKDAATQIFYSLSVAWGGLVALSSYNKFKNNCFSDAIVVCLTNCLTSVFAGFAIFSILGHMAHISGKEVSQVVKSGFDLAFIAYPEALAQLPGGPFWSILFFFMLLTLGLDSQFASIETITTTIQDLFPKVMKKMRVPITLGCCLVLFLLGLVCVTQAGIYWVHLIDHFCAGWGILIAAILELVGIIWIYGGNRFIEDTEMMIGAKRWIFWLWWRACWFVITPILLIAIFIWSLVQFHRPNYGAIPYPDWGVALGWCMIVFCIIWIPIMAIIKIIQAKGNIFQRLISCCRPASNWGPYLEQHRGERYKDMVDPKKEADHEIPTVSGSRKPE
The Vmax is the top rate of the reaction or transport when substrate is in excess. Usually Km stands for the substrate concentration at which the rate is half of its maximum. As for B1, the results for the Vmax in series [17], in series [18] and in series [19] were 201 pmol/mg/min, 278 pmol/mg/min and 235 pmol/mg/min, respectively. Besides, the Km stood at 35.6 µM in series [20], 54.6 µM in series [21] and 84 µM in [22].
